Laboratory results published in ChEMBL document CHEMBL4699558, “Lead optimization of 8-(methylamino)-2-oxo-1,2-dihydroquinolines as bacterial type II topoisomerase inhibitors” (Bioorg Med Chem, 2020).
Values after ≈ are worked out from the molar mass of the structure shown. Each block holds one compound with its values, some of them ahead of it.

What was measured:
[1] = system: Enterococcus; assay: Antibacterial activity against Vancomycin-resistant Enterococcus by CLSI method; format: functional
[2] = biological target: Voltage-gated inwardly rectifying potassium channel KCNH2 (Homo sapiens, UniProt Q12809); assay: Inhibition of human ERG expressed in CHO cells by Q-patch clamp assay
[3] = system: Prevotella melaninogenica; assay: Antibacterial activity against Prevotella melaninogenica JCM6325 by CLSI method; format: functional
[4] = system: Enterococcus faecium; assay: Antibacterial activity against vancomycin-resistant Enterococcus faecium ATCC 51559 by CLSI method; format: functional
[5] = Cmax in ICR mouse at 100 mg/kg, sc measured upto 24 hrs by LC-MS analysis; format: ADME, organism-based; design: route subcutaneous, dose 100 mg/kg, time 24 hrs; details: in vivo
[6] = system: Streptococcus pneumoniae; assay: Antibacterial activity against Streptococcus pneumoniae ATCC 49619 by CLSI method; format: functional
[7] = biological target: T1, Cytoplasmic tyrosine-protein kinase BMX (Homo sapiens) (UniProt P51813); assay: Inhibition of recombinant BMX (unknown origin) at 10 uM using fluorescence-labeled peptide as substrate incubated for 15 mins followed by substrate addition and measured after 90 mins by electrophoretic mobility assay relative to control; details: time 105.0 min
T1 sequence (whole entry): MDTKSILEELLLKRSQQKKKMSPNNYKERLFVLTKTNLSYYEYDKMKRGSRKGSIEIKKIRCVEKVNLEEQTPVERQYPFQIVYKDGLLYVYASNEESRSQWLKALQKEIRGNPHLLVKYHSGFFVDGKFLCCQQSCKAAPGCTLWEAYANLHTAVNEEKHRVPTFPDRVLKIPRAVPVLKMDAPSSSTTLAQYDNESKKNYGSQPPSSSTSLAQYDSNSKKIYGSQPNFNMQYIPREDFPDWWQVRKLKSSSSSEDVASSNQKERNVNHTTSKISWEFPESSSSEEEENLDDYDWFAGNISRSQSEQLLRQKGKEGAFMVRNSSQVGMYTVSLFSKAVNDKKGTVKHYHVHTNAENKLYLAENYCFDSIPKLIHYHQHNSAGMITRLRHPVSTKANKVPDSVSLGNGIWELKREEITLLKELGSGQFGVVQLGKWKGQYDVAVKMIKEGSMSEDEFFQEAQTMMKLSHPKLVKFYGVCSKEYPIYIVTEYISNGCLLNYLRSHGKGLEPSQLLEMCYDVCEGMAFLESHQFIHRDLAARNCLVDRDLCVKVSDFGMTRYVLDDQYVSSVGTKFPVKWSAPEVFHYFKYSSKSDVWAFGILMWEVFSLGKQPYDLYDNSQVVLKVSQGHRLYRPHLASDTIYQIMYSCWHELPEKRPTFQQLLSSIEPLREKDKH

[8] = system: Bacteroides fragilis; assay: Antibacterial activity against Bacteroides fragilis ATCC 25285 by CLSI method; format: functional
[9] = system: Haemophilus influenzae; assay: Antibacterial activity against Haemophilus influenzae ATCC 43095 by CLSI method; format: functional
[10] = biological target: DNA gyrase (Escherichia coli, UniProt P0AES4+P0AES6); assay: Inhibition of Escherichia coli DNA gyrase by measuring supercoiling activity incubated for 60 mins by fluorescence based assay; format: protein-complex assay
[11] = system: Enterococcus faecalis; assay: Antibacterial activity against vancomycin-resistant Enterococcus faecalis ATCC 51575 by CLSI method; format: functional
[12] = system: Staphylococcus aureus; assay: Antibacterial activity against community-acquired Methicillin -resistant Staphylococcus aureus ATCC BAA-1556 by CLSI method; format: functional
[13] = Cytotoxicity against human HepG2 cells assessed as reduction in cell viability at 50 uM incubated for 48 hrs by CCK-8 assay; details: HepG2 cells
[14] = system: Escherichia coli; assay: Antibacterial activity against Escherichia coli ATCC 25922 by CLSI method; format: functional
[15] = system: Porphyromonas gingivalis; assay: Antibacterial activity against Porphyromonas gingivalis JCM8525 by CLSI method; format: functional
[16] = system: Enterococcus faecalis; assay: Antibacterial activity against Enterococcus faecalis ATCC 29212 by CLSI method; format: functional
[17] = biological target: DNA topoisomerase 2-alpha (Homo sapiens, UniProt P11388); assay: Inhibition of human topoisomerase 2alpha; format: ADME
[18] = system: Peptostreptococcus anaerobius; assay: Antibacterial activity against Peptostreptococcus anaerobius ATCC 27337 by CLSI method; format: functional
[19] = system: Clostridioides difficile; assay: Antibacterial activity against Clostridioides difficile ATCC 700057 by CLSI method; format: functional
[20] = system: Fusobacterium nucleatum; assay: Antibacterial activity against Fusobacterium nucleatum JCM8532 by CLSI method; format: functional
[21] = system: Staphylococcus aureus; assay: Antibacterial activity against Staphylococcus aureus ATCC 29213 by CLSI method; format: functional
[22] = AUC (0 to 24 hrs) in ICR mouse at 100 mg/kg, sc measured upto 24 hrs by LC-MS analysis; format: ADME, organism-based; design: route subcutaneous, dose 100 mg/kg, time 24 hrs; details: in vivo
[23] = Cytotoxicity against human HepG2 cells assessed as reduction in cell viability at 10 uM incubated for 48 hrs by CCK-8 assay; details: HepG2 cells
[24] = system: Staphylococcus aureus; assay: Antibacterial activity against Methicillin-resistant Staphylococcus aureus by CLSI method; format: functional
[25] = system: Staphylococcus aureus; assay: Antibacterial activity against hospital-acquired Methicillin -resistant Staphylococcus aureus ATCC BAA-811 by CLSI method; format: functional
[26] = system: Streptococcus anginosus; assay: Antibacterial activity against Streptococcus anginosus ATCC 33397 by CLSI method; format: functional
[27] = Inhibition of Escherichia coli topoisomerase IV by measuring relaxation activity incubated for 30 mins by fluorescence based assay
[28] = system: Enterococcus faecium; assay: Antibacterial activity against Enterococcus faecium ATCC 35667 by CLSI method; format: functional
[29] = Tmax in ICR mouse at 100 mg/kg, sc measured upto 24 hrs by LC-MS analysis; format: ADME, organism-based; details: in vivo
[30] = system: Streptococcus pneumoniae; assay: Antibacterial activity against genotype penicillin-resistant Streptococcus pneumoniae by CLSI method; format: functional
[31] = Half life in ICR mouse at 100 mg/kg, sc measured upto 24 hrs by LC-MS analysis; format: ADME, organism-based; details: in vivo
[32] = system: Escherichia coli; assay: Antibacterial activity against Escherichia coli ATCC 25922 in presence of PAbetaN by CLSI method; format: functional
[33] = system: Staphylococcus aureus; assay: Antibacterial activity against Staphylococcus aureus ATCC 29213 assessed as reduction in bacterial cell growth incubated for 18 hrs by CSLI based broth microdilution method; format: functional
[34] = system: Escherichia coli; assay: Antibacterial activity against Escherichia coli ATCC 25922 assessed as reduction in bacterial cell growth incubated for 18 hrs by CSLI based broth microdilution method; format: functional
[35] = system: Escherichia coli; assay: Potency index, ratio of MIC of 4-(8-(methylamino)-2-oxo-1,2-dihydroquinoline-3-carboxamido)benzoic acid to MIC of compound for antibacterial activity against Escherichia coli ATCC 25922; format: functional
[36] = biological target: DNA gyrase (Escherichia coli) (UniProt P0AES6+P0AES4); assay: Potency index, ratio of IC50 of 4-(8-(methylamino)-2-oxo-1,2-dihydroquinoline-3-carboxamido)benzoic acid to IC50 of compound for inhibition of Escherichia coli DNA gyrase incubated for 60 mins by fluorescence based assay; format: protein-complex assay

DNA topoisomerase 2-alpha, sequence (P11388 whole entry): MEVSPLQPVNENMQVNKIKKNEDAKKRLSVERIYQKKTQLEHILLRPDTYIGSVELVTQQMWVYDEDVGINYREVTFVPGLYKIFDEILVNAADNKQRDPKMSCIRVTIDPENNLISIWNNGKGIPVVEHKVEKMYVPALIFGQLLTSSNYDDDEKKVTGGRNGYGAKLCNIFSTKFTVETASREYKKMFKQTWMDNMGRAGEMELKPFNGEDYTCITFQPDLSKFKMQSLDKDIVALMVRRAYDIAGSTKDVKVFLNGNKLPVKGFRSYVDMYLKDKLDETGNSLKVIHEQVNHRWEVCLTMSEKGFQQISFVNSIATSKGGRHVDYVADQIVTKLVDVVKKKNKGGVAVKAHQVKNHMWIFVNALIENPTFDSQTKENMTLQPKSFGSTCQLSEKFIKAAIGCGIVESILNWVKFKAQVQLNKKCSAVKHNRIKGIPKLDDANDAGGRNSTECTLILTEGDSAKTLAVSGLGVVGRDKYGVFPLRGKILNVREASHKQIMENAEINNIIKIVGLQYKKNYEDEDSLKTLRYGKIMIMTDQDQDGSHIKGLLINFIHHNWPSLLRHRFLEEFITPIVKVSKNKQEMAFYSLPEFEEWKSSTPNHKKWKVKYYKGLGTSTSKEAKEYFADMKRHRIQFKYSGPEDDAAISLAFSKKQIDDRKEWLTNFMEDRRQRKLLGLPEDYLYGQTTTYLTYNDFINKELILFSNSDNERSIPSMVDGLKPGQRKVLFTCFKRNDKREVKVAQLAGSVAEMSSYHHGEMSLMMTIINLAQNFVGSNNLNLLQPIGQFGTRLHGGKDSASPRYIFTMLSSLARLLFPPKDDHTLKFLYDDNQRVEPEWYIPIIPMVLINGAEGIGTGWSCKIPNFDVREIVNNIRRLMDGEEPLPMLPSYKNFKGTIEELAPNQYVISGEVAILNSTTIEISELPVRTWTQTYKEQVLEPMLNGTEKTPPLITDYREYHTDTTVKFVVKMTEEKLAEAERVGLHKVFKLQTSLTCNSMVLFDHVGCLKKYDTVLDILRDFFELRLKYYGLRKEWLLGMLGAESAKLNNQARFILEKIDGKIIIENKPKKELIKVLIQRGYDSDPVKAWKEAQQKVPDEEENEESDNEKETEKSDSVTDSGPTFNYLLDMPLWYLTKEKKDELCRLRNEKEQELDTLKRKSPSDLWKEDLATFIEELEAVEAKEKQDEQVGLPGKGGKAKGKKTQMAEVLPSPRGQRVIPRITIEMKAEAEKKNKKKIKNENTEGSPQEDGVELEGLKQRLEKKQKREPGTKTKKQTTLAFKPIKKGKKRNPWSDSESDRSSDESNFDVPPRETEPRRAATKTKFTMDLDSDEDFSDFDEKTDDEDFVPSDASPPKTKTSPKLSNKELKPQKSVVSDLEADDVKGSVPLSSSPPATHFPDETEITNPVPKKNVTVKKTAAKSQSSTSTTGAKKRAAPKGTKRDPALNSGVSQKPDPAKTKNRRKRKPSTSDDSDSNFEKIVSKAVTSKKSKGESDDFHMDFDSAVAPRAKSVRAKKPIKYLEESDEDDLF
Voltage-gated inwardly rectifying potassium channel KCNH2, sequence (Q12809 whole entry): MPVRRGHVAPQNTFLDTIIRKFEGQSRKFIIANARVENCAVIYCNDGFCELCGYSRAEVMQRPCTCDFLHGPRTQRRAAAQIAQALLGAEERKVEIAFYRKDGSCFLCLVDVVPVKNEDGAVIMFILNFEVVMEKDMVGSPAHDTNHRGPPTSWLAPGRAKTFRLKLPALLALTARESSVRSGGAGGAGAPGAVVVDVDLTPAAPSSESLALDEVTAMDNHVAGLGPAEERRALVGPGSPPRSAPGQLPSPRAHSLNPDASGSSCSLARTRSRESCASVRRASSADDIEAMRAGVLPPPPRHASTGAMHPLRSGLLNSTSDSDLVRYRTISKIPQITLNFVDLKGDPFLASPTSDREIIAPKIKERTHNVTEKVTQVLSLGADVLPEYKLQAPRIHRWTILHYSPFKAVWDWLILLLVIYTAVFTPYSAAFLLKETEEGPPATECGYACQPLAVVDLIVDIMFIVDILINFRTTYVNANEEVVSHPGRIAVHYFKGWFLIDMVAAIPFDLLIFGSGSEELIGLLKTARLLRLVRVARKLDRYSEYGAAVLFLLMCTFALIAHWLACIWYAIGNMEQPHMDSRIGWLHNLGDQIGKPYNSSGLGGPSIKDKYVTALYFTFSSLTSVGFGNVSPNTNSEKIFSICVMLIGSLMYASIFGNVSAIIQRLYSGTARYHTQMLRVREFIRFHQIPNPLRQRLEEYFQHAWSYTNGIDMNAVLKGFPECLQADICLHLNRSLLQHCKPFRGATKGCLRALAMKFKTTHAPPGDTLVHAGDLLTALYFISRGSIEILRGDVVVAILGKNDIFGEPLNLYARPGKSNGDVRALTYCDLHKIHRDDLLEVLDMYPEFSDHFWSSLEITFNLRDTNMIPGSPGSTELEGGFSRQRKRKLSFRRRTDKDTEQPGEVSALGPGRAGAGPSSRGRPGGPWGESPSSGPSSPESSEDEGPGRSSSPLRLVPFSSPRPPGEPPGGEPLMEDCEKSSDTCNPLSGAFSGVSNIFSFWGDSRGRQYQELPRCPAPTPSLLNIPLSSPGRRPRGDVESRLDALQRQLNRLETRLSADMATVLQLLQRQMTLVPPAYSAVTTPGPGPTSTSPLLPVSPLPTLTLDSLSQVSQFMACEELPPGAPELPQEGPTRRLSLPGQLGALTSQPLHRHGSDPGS

Structure (SMILES): CNc1cc(F)cc2c(O)c(C(=O)Nc3ccc(C(=O)O)cc3)c(=O)[nH]c12
MIC50 [1]: 0.008 µg/mL (≈ 0.0215 µM)
MIC90 [1]: 0.015 µg/mL (≈ 0.0404 µM)
IC50 [2]: > 30 µM
MIC [3]: > 32 µg/mL
MIC [4]: 0.015 µg/mL (≈ 0.0404 µM)
Cmax [5]: 12400 ng/mL
MIC [6]: 0.015 µg/mL (≈ 0.0404 µM)
inhibition [7]: 29%
MIC [8]: 8 µg/mL (≈ 21.5 µM)
MIC [9]: ≤ 0.015 µg/mL
IC50 [10]: 0.0011 µM
MIC [11]: 0.002 µg/mL (≈ 0.00539 µM)
MIC [12]: 0.25 µg/mL (≈ 0.673 µM)
cytotoxicity at 48 h, 50 µM [13]: 25.2%
MIC [14]: 1 µg/mL (≈ 2.69 µM)
MIC [15]: 0.25 µg/mL (≈ 0.673 µM)
MIC [16]: 0.002 µg/mL (≈ 0.00539 µM)
IC50 [17]: > 100 µM
MIC [18]: 0.06 µg/mL (≈ 0.162 µM)
MIC [19]: 0.25 µg/mL (≈ 0.673 µM)
MIC [20]: 0.12 µg/mL (≈ 0.323 µM)
MIC [21]: 0.25 µg/mL (≈ 0.673 µM)
AUC(0-t) at 24 h [22]: 16000 ng·h/mL
cytotoxicity at 48 h, 10 µM [23]: 7.93%
MIC50 [24]: 0.25 µg/mL (≈ 0.673 µM)
MIC90 [24]: 0.25 µg/mL (≈ 0.673 µM)
MIC [25]: 0.5 µg/mL (≈ 1.35 µM)
MIC [26]: 0.03 µg/mL (≈ 0.0808 µM)
IC50 [27]: 0.0629 µM
MIC [28]: 0.008 µg/mL (≈ 0.0215 µM)
Tmax [29]: 0.25 h
MIC50 [30]: 0.03 µg/mL (≈ 0.0808 µM)
MIC90 [30]: 0.06 µg/mL (≈ 0.162 µM)
half-life [31]: 6.79 h

MIC [32]: < 0.03 µg/mL
MIC [33]: 16 µg/mL (≈ 47.4 µM)
MIC [34]: 64 µg/mL (≈ 190 µM)
IC50 [27]: 0.98 µM
Structure (SMILES): CNc1cccc2cc(C(=O)Nc3ccc(C(=O)O)cc3)c(=O)[nH]c12

Structure (SMILES): CNc1cc(F)cc2cc(C(=O)Nc3ccc(C(=O)O)cc3)c(=O)[nH]c12
Ratio [35]: 4
MIC [4]: 0.015 µg/mL (≈ 0.0422 µM)
Ratio IC50 [36]: 5
MIC [6]: 0.03 µg/mL (≈ 0.0844 µM)
MIC [9]: 0.03 µg/mL (≈ 0.0844 µM)
MIC [32]: 0.015 µg/mL
IC50 [10]: 0.00036 µM
MIC [11]: 0.015 µg/mL (≈ 0.0422 µM)
MIC [12]: 8 µg/mL (≈ 22.5 µM)
MIC [14]: 16 µg/mL (≈ 45 µM)
MIC [16]: 0.015 µg/mL (≈ 0.0422 µM)
MIC [21]: 4 µg/mL (≈ 11.3 µM)
MIC [25]: 8 µg/mL (≈ 22.5 µM)
MIC [26]: 0.06 µg/mL (≈ 0.169 µM)
IC50 [27]: 0.219 µM
MIC [28]: 0.03 µg/mL (≈ 0.0844 µM)

Structure (SMILES): CO[C@@H]1[C@@H](OC(N)=O)[C@@H](O)[C@H](Oc2ccc3c(O)c(NC(=O)c4ccc(O)c(CC=C(C)C)c4)c(=O)oc3c2C)OC1(C)C [NOVOBIOCIN]
MIC [33]: 0.13 µg/mL (≈ 0.212 µM)
MIC [34]: 64 µg/mL (≈ 104 µM)
